The subject of this series is Spontaneously hypertensive rats. The series is described as follows: Blood pressure and heart rate by tail-cuff after chronic local drug delivery to the renal capsule via implanted minipumps.
Setting [1] is: local delivery to renal capsule by minipump, tail-cuff, over time.

On to `Clc1cccc(Cl)c1N=C1NCCN1` [clonidine], for which, where the note is “local delivery to renal capsule”, the “dosage resulting in the blood-pressure effect, compared with oral dosage expected for a similar result” value is reported as “significantly less than an oral dosage”. Besides, the “heart rate (side effect)” value (local delivery to renal capsule by minipump) is recorded as “not reduced”. Moreover, under setting [1], the diastolic blood pressure result was “reduced”, the mean blood pressure result is “reduced” and the systolic blood pressure result is on record as “reduced”.
